{"source": "patent US9003693B2", "about": "“Control of zebra mussels in closed service water systems” (ASI Group Ltd., priority 2013, dated 2015)", "key": {"adult zebra mussels": {"test_system": "adult zebra mussels", "experimental": "Laboratory research was carried out to investigate potash for mussel control by itself or in combination with oxidizing agents such as chlorine or hydrogen peroxide.\nExperiments were carried out with adult zebra mussels using potassium chloride (KCl) alone, as well as chloramine, hydrogen peroxide and combinations thereof to determine the estimated time to 95% mortality. Experimentation was carried out at 100 mg/L K^+ and test temperatures ranged from 2 to 30° C."}, "[1]": {"test_system": "naturally occurring veliger larvae", "experiment": "Larval settlement on PVC settling plates in flow-through tanks", "type": "in vivo, zebra mussel (Dreissena polymorpha)", "settings": "52 day trial period; for Larval (veliger) settlement: 30 mg/l K+", "experimental": "(§1) Mortality studies using flow through contact chambers were performed with young adult (<1.5 cm) zebra mussels and naturally occurring veliger populations at a small tributary of a canal located in southern Ontario, Canada. Water temperatures ranged between 20 and 25° C. throughout the trial.\nIn addition to adult trials, six PVC settling plates were installed in one replicate tank at each test concentration as well as the control. The presence of naturally occurring veliger larvae in the water source provided the opportunity of determining settling rates at each test concentration.\n(§2) A concentrated potassium solution was metered into each replicate test line prior to its entering the test tanks from a pre-mixed batch tank. Potassium source was commercial grade potash which was 60% potassium by weight. The potassium concentration was controlled through differential metering rates. Flow-through trials were carried out for 52 days at which point final mortality in adults was recorded."}, "[2]": {"test_system": "young adult (<1.5 cm) zebra mussels", "experiment": "Flow-through contact chamber mortality study, adult mussels", "type": "in vivo", "settings": "for Final mortality of adult mussels: end of the 52 day trial", "experimental": "as §1\nAdult zebra mussels were exposed to three concentrations of K^+ (40 mg/l, 30 mg/l, and 20 mg/l) as well as a control chamber. Each concentration as well as the control was replicated three times. The nature of the design allowed for simultaneous trials with adults and veligers. Sixty adult mussels (six groups of ten) were exposed in each replicate test concentration and control tank. Mussels were contained in PVC mesh baskets which allowed free flow of water while maintaining the mussels in discrete groups of ten.\nas §2"}, "Fathead minnow": {"test_system": "Fathead minnow", "experiment": "KCl toxicity test on non-target species (EPS protocol)", "type": "in vivo", "experimental": "(§3) Studies were performed to investigate the environmental effects on non-target species of treatment with concentrations of potassium effective for controlling zebra mussels. As set out below, potassium when discharged at concentrations of 100 mg/l or less is an environmentally benign method of zebra mussel control. This is an important advantage over other methods of controlling zebra mussels such as by the use of chlorine or other oxidizing agents which can result in significant non-target species toxicity.\n(§4) A stock solution at 1000 mg/l KCl was used to set all tests. Dilutions were made from these stocks. Test methods were as dictated by EPS protocols for each test organism."}, "Ceriodaphnia dubia": {"test_system": "Ceriodaphnia dubia", "experiment": "KCl toxicity test on non-target species (EPS protocol)", "type": "in vivo", "experimental": "as §3, §4"}, "Rainbow trout": {"test_system": "Rainbow trout", "experiment": "KCl toxicity test on non-target species (EPS protocol)", "type": "in vivo", "settings": "acute test", "experimental": "as §3, §4"}, "Daphnia magna": {"test_system": "Daphnia magna", "experiment": "KCl toxicity test on non-target species (EPS protocol)", "type": "in vivo", "settings": "acute test", "experimental": "as §3, §4"}}, "note": "Where two headings read alike, the source gives them in different places. Marks after values point to notes of the source that are not given here.", "data": [{"smiles": "NCl", "note": "[chloramine]", "values": [{"measurement": "Estimated time (hours) to 95% mortality", "setting": "adult zebra mussels; chloramine 0.5 mg/L, 10-12 °C, extrapolated value", "result": "480* hours"}, {"measurement": "Estimated time (hours) to 95% mortality", "setting": "adult zebra mussels; chloramine 0.5 mg/L, 14-26 °C, extrapolated value", "result": "97* hours"}, {"measurement": "Estimated time (hours) to 95% mortality", "setting": "adult zebra mussels; chloramine 1.0 mg/L, 10-12 °C", "result": 258, "unit": "h"}, {"measurement": "Estimated time (hours) to 95% mortality", "setting": "adult zebra mussels; chloramine 1.0 mg/L, 13-17 °C", "result": 209, "unit": "h"}, {"measurement": "Estimated time (hours) to 95% mortality", "setting": "adult zebra mussels; chloramine 1.0 mg/L, 14-26 °C", "result": 60, "unit": "h"}, {"measurement": "Estimated time (hours) to 95% mortality", "setting": "adult zebra mussels; chloramine 2.0 mg/L, 13-17 °C", "result": 87, "unit": "h"}]}, {"smiles": "[K+]", "note": "[potassium cation]", "values": [{"measurement": "Zebra mussel mortality", "setting": "adult zebra mussels; 100 mg/L potassium, in 48 hours, water temperatures above 15 °C", "result": 100, "unit": "%"}, {"measurement": "Estimated time (hours) to 95% mortality", "setting": "adult zebra mussels; KCl at 100 mg/L K+, 14-26 °C", "result": 22, "unit": "h"}, {"measurement": "Larval (veliger) settlement", "setting": "[1]", "result": "No larval settlement was detected"}, {"measurement": "Larval (veliger) settlement", "setting": "[1]; listed as Potassium", "result": "effective at preventing settlement of veligers"}, {"measurement": "Larval settlement", "setting": "[1]; 40 mg/l K+", "result": "No larval settlement was detected"}, {"measurement": "Final mortality of adult mussels", "setting": "[2]; 20 mg/l K+, water 20-25 °C", "result": 73, "unit": "%"}, {"measurement": "Final mortality of adult mussels", "setting": "[2]; 30 mg/l K+, water 20-25 °C", "result": 91, "unit": "%"}, {"measurement": "Mortality of a target population", "setting": "[2]; 40 mg/L potassium, within two weeks, water temperatures above 15 °C", "result": "up to 100%"}, {"measurement": "Time to complete mortality of adult mussels", "setting": "[2]; 40 mg/l K+, flow-through, water 20-25 °C", "result": "≤ 25", "unit": "days"}, {"measurement": "Mortality of zebra mussels over time (in words)", "setting": "[2]; 40 mg/l potassium", "result": "significant mortality within two weeks and complete mortality in this trial in just over three weeks"}]}, {"smiles": "[Cl-].[K+]", "note": "[KCl, potassium chloride]", "values": [{"measurement": "Estimated time (hours) to 95% mortality", "setting": "adult zebra mussels; KCl at 100 mg/L K+, 10-12 °C, extrapolated value", "result": "283* hours"}, {"measurement": "Estimated time (hours) to 95% mortality", "setting": "adult zebra mussels; KCl at 100 mg/L K+, 12-14 °C", "result": 165, "unit": "h"}, {"measurement": "Estimated time (hours) to 95% mortality", "setting": "adult zebra mussels; KCl at 100 mg/L K+, 13-17 °C", "result": 113, "unit": "h"}, {"measurement": "Estimated time (hours) to 95% mortality", "setting": "adult zebra mussels; KCl at 100 mg/L K+, 14-26 °C", "result": 22, "unit": "h"}, {"measurement": "Estimated time (hours) to 95% mortality", "setting": "adult zebra mussels; KCl at 100 mg/L K+, 20-21 °C", "result": 56, "unit": "h"}, {"measurement": "Estimated time (hours) to 95% mortality", "setting": "adult zebra mussels; KCl at 100 mg/L K+, 22-24 °C, extrapolated value", "result": "33* hours"}, {"measurement": "IC25", "setting": "Fathead minnow", "result": 736.2, "unit": "mg/L"}, {"measurement": "IC50", "setting": "Fathead minnow", "result": 892.5, "unit": "mg/L"}, {"measurement": "LC50", "setting": "Fathead minnow", "result": 512.7, "unit": "mg/L"}, {"measurement": "GROWTH/REPRODUCTIVE DATA LOEC", "setting": "Fathead minnow; NED = no effect detected", "result": "NED"}, {"measurement": "GROWTH/REPRODUCTIVE DATA NOEC", "setting": "Fathead minnow; NED = no effect detected", "result": "NED"}, {"measurement": "GROWTH/REPRODUCTIVE DATA TEC", "setting": "Fathead minnow; NED = no effect detected", "result": "NED"}, {"measurement": "SURVIVAL DATA LOEC", "setting": "Fathead minnow; chronic test", "result": 603, "unit": "mg/L"}, {"measurement": "SURVIVAL DATA NOEC", "setting": "Fathead minnow; chronic test", "result": 302, "unit": "mg/L"}, {"measurement": "SURVIVAL DATA TEC (threshold effect concentration)", "setting": "Fathead minnow; chronic test", "result": 426.7, "unit": "mg/L"}, {"measurement": "IC25", "setting": "Ceriodaphnia dubia", "result": 189.3, "unit": "mg/L"}, {"measurement": "IC50", "setting": "Ceriodaphnia dubia", "result": 256.8, "unit": "mg/L"}, {"measurement": "LC50", "setting": "Ceriodaphnia dubia", "result": 219.6, "unit": "mg/L"}, {"measurement": "GROWTH/REPRODUCTIVE DATA LOEC", "setting": "Ceriodaphnia dubia; NED = no effect detected", "result": "NED"}, {"measurement": "GROWTH/REPRODUCTIVE DATA NOEC", "setting": "Ceriodaphnia dubia; NED = no effect detected", "result": "NED"}, {"measurement": "GROWTH/REPRODUCTIVE DATA TEC", "setting": "Ceriodaphnia dubia; NED = no effect detected", "result": "NED"}, {"measurement": "SURVIVAL DATA LOEC", "setting": "Ceriodaphnia dubia; chronic test", "result": 385, "unit": "mg/L"}, {"measurement": "SURVIVAL DATA NOEC", "setting": "Ceriodaphnia dubia; chronic test", "result": 193, "unit": "mg/L"}, {"measurement": "SURVIVAL DATA TEC (threshold effect concentration)", "setting": "Ceriodaphnia dubia; chronic test", "result": 272.6, "unit": "mg/L"}, {"measurement": "LC50", "setting": "Rainbow trout", "result": 1248.4, "unit": "mg/L"}, {"measurement": "LC50", "setting": "Daphnia magna", "result": 188.8, "unit": "mg/L"}]}, {"smiles": "OO", "note": "[H2O2, hydrogen peroxide]", "values": [{"measurement": "Estimated time (hours) to 95% mortality", "setting": "adult zebra mussels; H2O2 5 mg/L, 12-14 °C, extrapolated value", "result": "1714* hours"}, {"measurement": "Estimated time (hours) to 95% mortality", "setting": "adult zebra mussels; H2O2 5 mg/L, 20-21 °C, extrapolated value", "result": "455* hours"}, {"measurement": "Estimated time (hours) to 95% mortality", "setting": "adult zebra mussels; H2O2 5 mg/L, 22-24 °C, extrapolated value", "result": "294* hours"}, {"measurement": "Estimated time (hours) to 95% mortality", "setting": "adult zebra mussels; H2O2 10 mg/L, 12-14 °C", "result": 227, "unit": "h"}, {"measurement": "Estimated time (hours) to 95% mortality", "setting": "adult zebra mussels; H2O2 10 mg/L, 20-21 °C", "result": 36, "unit": "h"}, {"measurement": "Estimated time (hours) to 95% mortality", "setting": "adult zebra mussels; H2O2 10 mg/L, 22-24 °C", "result": 21, "unit": "h"}]}]}
